Laboratory results taken from patent US10570401B2, “Compositions and method for destabilizing, altering, and dispersing biofilms” (priority 2013, dated 2020).

Key:
[1] = tested on: bacterial biofilm communities; test: L-arginine versus D-arginine on bacterial biofilm communities; format: cell-based; settings: FIG. 11
Description: Therefore the destabilizing effects of arginine are specific to the L-form.

[2] = tested on: pre-formed multi-species oral biofilms
[3] = tested on: multi-species oral biofilm communities; test: Multi-species oral biofilms in static (non-flowing) microplate system, CLSM; format: cell-based; settings: 500 mM, static microplate system (FIG. 6)
Description: Upper renderings (A1-H1) are of the x-y plane. Middle renderings (A2-H2) are of the x-z plane. Lower renderings (A3-H3) represent an angled view (x-y-z). Bars represent 50 μm.

[4] = tested on: AI-2 production by multi-species biofilms; test: AI-2 bioluminescence assay with Vibrio harveyi BB170 on microfluidics efflux of multi-species biofilms; format: cell-based; settings: fold induction of bioluminescence, increasing arginine concentrations (FIG. 10)
Description: The AI-2 data are normalized to the “control” (non-supplemented saliva).
Values were produced by first taking averages of 4 trials at each concentration and dividing them by the average for the negative control, creating an induction number. […] High AI-2 may also have a destabilizing effect on the community, which could explain or contribute to the structural changes seen in the biofilms.

S. gordonii biofilms = test: S. gordonii biofilm formation in saliva, Bioflux microfluidics system; format: cell-based
Protocol: (§1) The effects of arginine-dependent dosing of S. gordonii biofilms is assessed in a modified Bioflux microfluidics system. Human saliva is collected and pooled from ≥6 different volunteers (Cuadra-Saenz et al., Microbiology. 2012; 158(Pt 7):1783-95), diluted to 25%, and additional supplements (e.g. sucrose, haemin, BHI) added as required to simulate different conditions. Note, we grow robust biofilms in even non-supplemented saliva and pooling the saliva minimizes variation in salivary components. To obtain an indication of free arginine levels in pooled saliva, arginine is measured in ≥3 different pooled saliva samples using standard techniques (Jakubovics et al., supra; Van Wuyckhuyse et al., Journal of dental research. 1995; 74(2):686-90). The 24 channels of the Bioflux system are coated with saliva, inoculated with monocultures of S. gordonii (or multi-species biofilms harvested form saliva) and biofilms are developed at 37° C. with cell free saliva. After 20 h, cells are stained with live/dead stain and visualized using a Leica SPE CLSM. Biomass and structural biofilm parameters are quantified using COMSTAT (Heydorn et al., Microbiology. 2000; 146 (Pt 10):2395-407), ImageJ (Collins, Biotechniques. 2007; 43(1 Suppl):25-30), and IMARIS software (Bitplane, Switzerland).

saliva derived community = test: Community composition of saliva-derived biofilms by 454 pyrosequencing; format: cell-based
Protocol: Black-colored bars represent data derived from the analysis of biofilms developed in flowing non-supplemented saliva while the grey-colored bars represent data derived from the analysis of biofilms developed in 500 mM supplemented saliva. (B) Showing changes in phyla (color coding as before). (C) Showing changes in composition of genera (key is from left to right in order from bottom to top in bar; Neisseria, Granulicatella, Streptococcus, etc).
(§2) This example describes the impact of L-arginine on oral biofilms that contain species grown under conditions representative of the human oral cavity. […] Destabilization was expressed as loss of biofilm structure and change in bacterial community membership, as determined by confocal laser scanning microscopy and 454 pyrosequencing.

[5] = tested on: multi-species oral biofilms; test: Multi-species oral biofilms developed 20 h in flowing saliva (Bioflux microfluidic system), CLSM live/dead; format: cell-based
Protocol: as §1, §2
Green signal indicates viable live cells and red signal indicates damaged/dead cells. […] Data derived from at-least 18 renderings across three experiments and standard deviations are shown in brackets. *P<0.05; **P<0.01; […]: significant differences from the CFS control.

S. gordonii DL1 = test: Fluorescent reporter plasmid (pPE1010) expression in S. gordonii DL1 biofilms on exogenous AI-2; format: cell-based; settings: exogenously added AI-2 (FIG. 12B)
Description: A plasmid (See e.g., FIG. 12) was utilized to monitor expression of reporter genes in the presence of arginine or AI-2. The pPE1010 backbone described in England et al. (Proc Natl Acad Sci USA. 2004 Nov. 30; 101(48):16917-22. Epub 2004 Nov. 16) was modified to express fluorescent genes such as GFP or Mcherry in S. gordonii DL1 or other species of streptococci. Specifically, promoters from differentially regulated genes are inserted upstream of a GFP or Mcherry gene harbored on pPE1010 (or similar streptococcal plasmid shuttle vector system) to be differentially expressed (FIGS. 12A and 12B). […] The plasmid provides constitutive-producing fluorescent probes for monitoring bacteria in biofilms and reporter systems that report arginine (or AI-2) concentrations in biofilms such as those found in dental plaque biofilms.

N=C(N)NCCC[C@@H](N)C(=O)O [D-arginine, reference compound]
disruption of bacterial biofilm communities [1]: does not have the same effect

N=C(N)NCCC[C@H](N)C(=O)O [L-arginine]
destabilization of pre-formed biofilms ([2]; 500 mM (FIG. 8)): destabilizes pre-formed multi-species oral biofilms of differing developmental age | penetration of CPC into biofilm ([2]; 500 mM L-arginine, CPC 0.01 or 0.05% (FIG. 9)): enhance the penetration of CPC | biofilm architecture [3]: makes the biofilm more diffuse with respect to architecture | biofilm biomass [3]: reduce biofilm biomass | killing [3]: No substantial killing was observed | amount of AI-2 produced from multi-species biofilms [4]: increases as the concentrations of arginine used to treat them increases | disruption of bacterial biofilm communities [1]: disrupts bacterial biofilm communities | extent of biofilm present (S. gordonii biofilms; 500 mM arginine, saliva, 20 h (FIG. 3)): significantly reduce the extent of biofilm present | biofilm formation by S. gordonii (S. gordonii biofilms; high (millimolar) concentrations of arginine, dose-dependent): abrogate biofilm formation by S. gordonii | proportion of Veillonella species and non-cariogenic streptococci in biofilms (saliva derived community; 500 mM treated biofilms): increased | bacterial diversity (operational taxonomic units, OTU) (saliva derived community; prolonged exposure to 500 mM (FIG. 5A)): increase in bacterial diversity

Cl.N=C(N)NCCC[C@H](N)C(=O)O [LAHCL, L-arginine monohydrochloride]
changes in pH ([5]; HCl balanced L-arginine in human saliva): No substantial changes in pH | destabilization of oral biofilms (loss of biofilm structure, change in community membership) ([5]; human saliva inoculum, 25% filter-sterilized saliva): destabilizes oral biofilms in a concentration dependent manner | antimicrobial effects ([5]; only detected as a consequence of biofilm perturbation): Very limited antimicrobial effects

autoinducer-2 [AI-2]
reporter expression from 50S ribosomal protein (SGO_1192) promoter (S. gordonii DL1): minimal differential expression | reporter expression from catabolite control protein A (SGO_0773; ccpA) promoter (S. gordonii DL1): drastically different gene expression
